Consider 8 compounds from patent publication US10301314B2, “Compounds and methods for the prevention and treatment of tumor metastasis and tumorigenesis” (The United States of America, as represented by the …, priority 2011, dated 2019).

pIC50: −log10 of the molar value. Like-named read-outs stand apart in the source and are kept apart here.

A word on the AC50: it is the concentration at which the activity in the assay is half-maximal. Low values mean activity at low concentration, high ones activity only at high concentration.

The subject of data set [1] is PC3M reporter cell line stably expressing the PTB-GFP. As to the kind of experiment: ATP quantitation assay (ATPLite). It counts as cell-based, human. The settings on record: Table 4, PC3M cells, 24 hrs incubation; for pIC50: Homo sapiens, PC-3M. On the technique in general: Cellular ATP, detected with luciferase, serves as a proxy for viable cell number.
For data set [2], the system named is PC3M cell line that stably expresses GFP-PTB to mark PNCs. The data set is described as follows: High content assay for PNC detection (reduction of PNC prevalence). It is filed as cell-based, human. The note with it: PC3M GFP-PTB cells; for AC50 / pIC50: Homo sapiens, PC-3M; for AC50: Table 3; for pIC50 / PNC IC50(μM): Table 4, 16 hrs incubation.
Data set [3] concerns PC3M cells. As to the kind of experiment: Tumor cell migration/invasion assay through 3D fibrillar collagen (Iuvo Single Microchannel Plate). It counts as cell-based. The settings on record: Homo sapiens, PC-3M, 120 h, 5 days. As to the method: High-content tumor cell migration assays in 3-dimensional extracellular matrices are powerful tools for modeling and understanding the biology of this critical step in the process of metastasis. However, most of the available methods are not amenable to the throughput required by studies of comparative pharmacology or small scale screening. For this reason, compounds were tested in BellBrook Labs™ automated high-content tumor cell invasion assays. A standard screening-sized plate with an array of embedded microchannels was designed and constructed from common thermoplastics.
PC3M cells were tested for invasion through 3D fibrillar collagen in the luvo Single Microchannel Plate, in the presence of varying levels of test compounds. Channels were prefilled with 820 nL of 3-dimensional type I collagen at 1 mg/mL, through the input port. Following gelation, 2,000 PC3M cells were seeded into the output port using growth media (RPMI+10% FBS with antibiotics) in a volume of 5 μL. Cells were incubated in a 37° C. incubator inside a humidified container to control evaporation (Bioassay dish, Corning). Media, including test compounds, was changed daily for 5 days. At the end of the assay, cells were fixed and stained with Hoechst 33342, then imaged with 4× objective under epifluorescence. Under these conditions, cells across the 140 μm height range of the microchannel can be reliably identified. Test compounds were serially diluted by a factor of 3 to produce 10 concentrations ranging from 50 or 100 μM to 2.5 nM. All assays were conducted in the presence of 0.1% DMSO. Four replicates were performed for all test concentrations. Each plate had 4 dose response curves, as well as 16 channels with no compound and 16 channels with 50 μM blebbistatin (positive control). Analysis was done by automatically cropping each image at the right edge of the channel and counting cells via the ‘count nuclei’ function on Metamorph (Molecular Devices). Non-linear regression analysis was performed with GraphPad Prism.

The test system of data set [4] is PC3M cells. The data set is described as follows: Soft agar colony formation assay (anchorage independent growth). It is filed as cell-based, human. The note with it: after 14 days; 3.8, 18.6 nM. As to the method:
Compound 2 was tested for its ability to affect anchorage independent growth in a soft agar assay, a stringent method to detect malignant transformation of cells in vitro. […] The left hand side of FIG. 1 illustrates a histogram representing the number and size of PC3M soft agar colonies after 14 days of treatment with compound 2 at two different concentrations. A clear reduction of the number of colonies of PC3M cells was observed, particularly at a compound concentration of 18.6 nM. The right hand side of FIG. 1 illustrates two representative images taken at two different regions of the soft agar medium after treatment with DMSO (vehicle) (top row), compound 2 at 3.8 nM (middle row), and compound 2 at 18.6 nM (bottom row).

The mark [5] stands for this setting: PC3M cells in output port, read-out: Proliferation output port IC50.
Where [6] appears, read: PC3M cells, 3D type I collagen, read-out: Invasion cell # IC50.

Take `N=c1c2c(-c3ccccc3)c(-c3ccccc3)n(Cc3ccccc3)c2ncn1C1CCOCC1` [Compound 1]: the pIC50 was 3.82 in data set [1], 7.52 in data set [2], 5.30 with PC3M cells [3] (setting [5]) and 5.50 in the data set on PC3M cells [3] (setting [6]). For the same compound, the AC50 in data set [2] stood at 0.09 µM.

Take `N=c1c2c(-c3ccccc3)c(-c3ccccc3)n(Cc3ccccc3)c2ncn1[C@H]1CC[C@H](O)CC1` [Compound 2, trans-4-(7-Benzyl-4-imino-5,6-diphenyl-4,7-dihydro-3H-pyrrolo[2,3-d]pyrimidin-3-yl)cyclohexanol]: the pIC50 in data set [1] is 4.72; in data set [2] it was 7.62; in the data set on PC3M cells [3] (setting [5]), 5.40; in the data set with PC3M cells [3] (setting [6]) it was 5.50. In data set [2], this compound showed an AC50 of 0.4 µM. Further, the “cell viability in soft agar assay” value in the data set with PC3M cells [4] was “no impact on cell viability”. Further, the “number of PC3M soft agar colonies” value in the data set on PC3M cells [4] was “dose dependent reduction in the number of colonies”.

For the compound `N=c1c2c(-c3ccccc3)cn(Cc3ccccc3)c2ncn1CCN` [Compound 136], the “ATP IC50(μM)” value in data set [1] is “inactive”. The “PNC IC50(μM)” value in data set [2] is “inactive”.

Consider `OCCNc1ncnc2c1c(-c1ccccc1)c(-c1ccccc1)n2Cc1ccco1` [Compound 137], for which the “ATP IC50(μM)” value in data set [1] was “inactive”. The “PNC IC50(μM)” value in data set [2] is “inactive”.

`N=c1c2c(-c3ccccc3)cn(Cc3ccccc3)c2ncn1Cc1ccco1` [Compound 138] gave a pIC50 in data set [1] of 4.22. Also, the “PNC IC50(μM)” value in data set [2] is “inactive”.

Turning to `N=c1c2c(-c3ccccc3)cn(Cc3ccccc3)c2ncn1[C@H]1CC[C@H](O)CC1` [Compound 139], the “ATP IC50(μM)” value in data set [1] was “inactive”. The “PNC IC50(μM)” value in data set [2] was “inactive”.

In the case of `N=c1c2c(-c3ccccc3)cn(Cc3ccccc3)c2ncn1CCO` [Compound 140], in data set [1], the “ATP IC50(μM)” value was “inactive”. Also, the “PNC IC50(μM)” value in data set [2] is “inactive”.

Regarding `CC(C)Cn1cnc2c(c(-c3ccccc3)c(-c3ccccc3)n2Cc2ccco2)c1=N` [Compound 141], the figures for the pIC50 in data set [1] and in data set [2] were 4.69 and 4.80, respectively.
